Source: patent publication USRE50528E1, “Compounds and compositions for modulating EGFR mutant kinase activities” (Yuhan Corporation, priority 2014, dated 2025)

Tests used:
[1] = biological target: T1, KDR (Homo sapiens, UniProt P35968); assay: Kinase inhibition assay, KDR; type: biochemical; details: biochemical potency;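 also: purified full-length human KDR, 30 min preincubation with compound, then 1 h reaction with ATP and Ulight-Jak1 peptide substrate, phosphorylation read by Lance Europium antibody detection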
T1 construct: Purified human, full-length SYK, KDR; purchased Carna Biosciences

[2] = biological target: T2, EGFR mutant Del19/T790M (Homo sapiens, UniProt P00533, DEL746-750/T790M); assay: Kinase inhibition assay, EGFR del E746-A750/T790M; type: biochemical; details: read-out: EGFR mutants Del19/T790M
T2 construct: truncated human JAK3, EGFR mutants such as del E746-A750; purchased Carna Biosciences

[3] = biological target: T3, EGFR mutant Del19 (E746-A750) (Homo sapiens, UniProt P00533, DEL746-750); assay: Kinase inhibition assay, EGFR del E746-A750; type: biochemical; details: read-out: EGFR mutants Del19 (E746-A750);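 also: truncated human EGFR mutant kinase, two-hour preincubation with compound, then one-hour reaction with ATP and ULight-PolyGT peptide, LANCE Europium-antibody phosphorylation readout, IC50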
T3 construct: truncated human JAK3, EGFR mutants such as del E746-A750; purchased Carna Biosciences

[4] = biological target: T4, SYK (Homo sapiens, UniProt P43405); assay: Kinase inhibition assay, SYK; type: biochemical; details: biochemical potency;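 also: purified full-length human SYK pre-incubated 30 min with compound, then ULight-TK peptide phosphorylation for 1 h, detected with Europium-labeled antibody in Lance buffer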
T4 construct: Purified human, full-length SYK, KDR; purchased Carna Biosciences

[5] = biological target: T5, EGFR mutant T790M (Homo sapiens, UniProt P00533, T790M); assay: Kinase inhibition assay, EGFR mutant T790M; details: biochemical potency;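 also: truncated human EGFR mutant enzyme preincubated two hours with compound, then ATP plus ULight-PolyGT peptide for one hour, Europium-labeled antibody LANCE detection, IC50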
T5 construct: truncated human JAK3, EGFR mutants such as del E746-A750; purchased Carna Biosciences

[6] = biological target: T6, JAK3 (Homo sapiens, UniProt P52333); assay: Kinase inhibition assay, JAK3; details: biochemical potency;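 also: IC50 against purified truncated human JAK3 preincubated with compound, then reacted with ATP and ULight-Jak1 peptide, phosphorylation read by Europium-labeled antibody LANCE detection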
T6 construct: EGFR and JAK3 (JH1domain-catalytic) kinases, and mutant forms thereof; purchased Carna Biosciences

[7] = biological target: T7, EGFR mutant L858R (Homo sapiens, UniProt P00533, L858R); assay: Kinase inhibition assay, EGFR L858R; type: biochemical; details: read-out: EGFR mutants L858R;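 also: truncated human EGFR L858R kinase with compound preincubation, ULight-PolyGT peptide phosphorylation read by Europium-antibody Lance detection, IC50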
T7 construct: truncated human JAK3, EGFR mutants such as del E746-A750; purchased Carna Biosciences

[8] = biological target: T8, EGFR mutant L858R/T790M (Homo sapiens, UniProt P00533, L858R/T790M); assay: Kinase inhibition assay, EGFR L858R/T790M; type: biochemical; details: read-out: EGFR mutants L858R/T790M;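 also: truncated human enzyme preincubated two hours with compound, then one hour with one millimolar ATP and ULight-PolyGT peptide, Europium-labeled antibody detection, IC50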
T8 construct: truncated human JAK3, EGFR mutants such as del E746-A750; purchased Carna Biosciences

[9] = system: H2073 (EGFR wildtype); assay: Cell viability assay, H2073; type: cell-based; details: NCI-H2073; cellular potency; 72-hour incubation; ATPLite;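 also: NSCLC cell line whose survival relies on wildtype EGFR, treated with serially diluted compound, cytotoxic effect judged from remaining cell viability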
[10] = system: PC9 (EGFR del E746-A750 mutant); assay: Cell viability assay, PC9; type: cell-based; details: for Selectivity over wildtype, Wildtype vs mutant H2073/PC9 (fold): cellular potency ratio; for IC50: cellular potency, 72-hour incubation, ATPLite, read-out: EGFR Mutants PC9;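 as to all read-outs here: NSCLC PC9 cells, whose viability relies on EGFR del E746-A750, exposed to serially diluted compound for 72 h at 37 °C, ATPLite read-out, IC50, H2073 as EGFR wildtype line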
[11] = system: H1975 (EGFR L858R/T790M mutant); assay: Cell viability assay, H1975; type: cell-based; details: for IC50: Homo sapiens, NCI-H1975, cellular potency, 72-hour incubation, ATPLite, read-out: EGFR Mutants H1975; for Selectivity over wildtype, Wildtype vs mutant H2073/H1975 (fold): cellular potency ratio;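 as to all read-outs here: NSCLC cells whose survival relies on EGFR L858R/T790M, exposed 72 h to serially diluted compound, ATP-based viability readout, with the H2073 line (wildtype EGFR dependent) as wildtype comparator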

T3 sequence (P00533 with tags, fused parts or gaps DEL746-750 limits assumed): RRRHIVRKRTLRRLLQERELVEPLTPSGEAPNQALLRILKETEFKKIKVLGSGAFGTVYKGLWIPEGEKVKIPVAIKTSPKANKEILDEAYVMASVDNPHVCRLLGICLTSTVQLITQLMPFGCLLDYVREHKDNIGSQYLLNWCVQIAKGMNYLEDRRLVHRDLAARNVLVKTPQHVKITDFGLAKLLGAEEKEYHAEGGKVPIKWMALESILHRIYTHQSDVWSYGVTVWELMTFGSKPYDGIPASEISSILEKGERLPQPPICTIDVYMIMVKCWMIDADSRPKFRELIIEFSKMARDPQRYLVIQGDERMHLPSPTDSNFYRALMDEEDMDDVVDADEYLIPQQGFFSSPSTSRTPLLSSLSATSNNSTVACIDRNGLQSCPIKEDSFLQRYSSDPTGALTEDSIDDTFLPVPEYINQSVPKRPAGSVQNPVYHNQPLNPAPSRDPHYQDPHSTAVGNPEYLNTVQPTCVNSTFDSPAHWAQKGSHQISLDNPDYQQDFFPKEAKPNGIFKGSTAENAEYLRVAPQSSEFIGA
T1 sequence (P35968 20-1356): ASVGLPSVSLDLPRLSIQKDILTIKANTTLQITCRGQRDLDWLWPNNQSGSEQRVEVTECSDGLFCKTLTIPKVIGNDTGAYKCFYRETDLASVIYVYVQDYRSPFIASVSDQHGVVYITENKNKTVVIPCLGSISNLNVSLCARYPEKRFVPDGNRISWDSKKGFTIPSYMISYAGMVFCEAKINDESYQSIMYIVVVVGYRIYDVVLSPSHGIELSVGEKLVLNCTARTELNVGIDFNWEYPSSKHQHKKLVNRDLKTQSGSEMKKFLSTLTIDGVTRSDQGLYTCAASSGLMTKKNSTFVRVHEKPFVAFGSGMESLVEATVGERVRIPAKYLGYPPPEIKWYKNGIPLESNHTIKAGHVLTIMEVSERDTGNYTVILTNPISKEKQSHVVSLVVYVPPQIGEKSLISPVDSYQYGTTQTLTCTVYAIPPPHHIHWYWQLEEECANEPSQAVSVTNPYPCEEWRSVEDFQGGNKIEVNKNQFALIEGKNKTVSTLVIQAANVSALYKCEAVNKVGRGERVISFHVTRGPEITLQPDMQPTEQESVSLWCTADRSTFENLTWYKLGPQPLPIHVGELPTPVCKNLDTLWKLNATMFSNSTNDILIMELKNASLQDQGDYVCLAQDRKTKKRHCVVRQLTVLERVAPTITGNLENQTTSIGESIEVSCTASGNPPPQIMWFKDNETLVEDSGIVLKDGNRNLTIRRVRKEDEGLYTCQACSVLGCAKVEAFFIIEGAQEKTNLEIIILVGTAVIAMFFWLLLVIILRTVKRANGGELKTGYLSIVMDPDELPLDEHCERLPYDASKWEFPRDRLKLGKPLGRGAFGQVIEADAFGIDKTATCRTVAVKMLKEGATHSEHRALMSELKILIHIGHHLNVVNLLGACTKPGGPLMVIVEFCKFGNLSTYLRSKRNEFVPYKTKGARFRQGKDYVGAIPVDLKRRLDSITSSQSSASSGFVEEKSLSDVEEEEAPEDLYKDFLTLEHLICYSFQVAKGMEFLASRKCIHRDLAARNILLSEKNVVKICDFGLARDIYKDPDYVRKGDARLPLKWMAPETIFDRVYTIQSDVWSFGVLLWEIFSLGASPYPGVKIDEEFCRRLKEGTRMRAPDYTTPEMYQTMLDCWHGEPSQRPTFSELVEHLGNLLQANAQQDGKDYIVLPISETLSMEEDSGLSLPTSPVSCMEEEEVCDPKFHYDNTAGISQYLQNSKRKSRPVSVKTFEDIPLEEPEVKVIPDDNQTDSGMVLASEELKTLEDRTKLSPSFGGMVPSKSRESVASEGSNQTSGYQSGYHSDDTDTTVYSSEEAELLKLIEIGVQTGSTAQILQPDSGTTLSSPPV
T6 sequence (P52333 822-1111 limits assumed): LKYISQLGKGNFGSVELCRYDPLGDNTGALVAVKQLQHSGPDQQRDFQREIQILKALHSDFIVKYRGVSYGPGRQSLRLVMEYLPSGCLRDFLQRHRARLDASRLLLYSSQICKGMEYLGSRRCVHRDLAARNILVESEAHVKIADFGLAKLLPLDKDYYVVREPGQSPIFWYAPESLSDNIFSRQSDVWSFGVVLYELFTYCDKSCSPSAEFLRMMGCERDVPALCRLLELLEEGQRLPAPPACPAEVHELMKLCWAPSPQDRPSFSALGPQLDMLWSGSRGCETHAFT
T7 sequence (P00533 669-1210 L858R limits assumed): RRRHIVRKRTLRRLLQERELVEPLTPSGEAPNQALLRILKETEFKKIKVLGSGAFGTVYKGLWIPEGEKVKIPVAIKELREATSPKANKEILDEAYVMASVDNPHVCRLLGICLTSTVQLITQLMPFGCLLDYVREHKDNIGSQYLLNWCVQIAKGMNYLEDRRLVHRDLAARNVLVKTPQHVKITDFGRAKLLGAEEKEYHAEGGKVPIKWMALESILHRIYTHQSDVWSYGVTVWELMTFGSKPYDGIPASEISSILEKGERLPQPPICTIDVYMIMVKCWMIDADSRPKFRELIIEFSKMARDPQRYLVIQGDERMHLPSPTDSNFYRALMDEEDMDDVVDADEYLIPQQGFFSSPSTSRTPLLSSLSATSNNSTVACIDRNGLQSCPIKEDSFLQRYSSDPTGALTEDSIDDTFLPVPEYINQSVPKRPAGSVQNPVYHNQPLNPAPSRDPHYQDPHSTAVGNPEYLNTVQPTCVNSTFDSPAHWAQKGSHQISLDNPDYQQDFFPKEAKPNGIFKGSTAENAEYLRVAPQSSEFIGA
T2 sequence (P00533 with tags, fused parts or gaps DEL746-750/T790M limits assumed): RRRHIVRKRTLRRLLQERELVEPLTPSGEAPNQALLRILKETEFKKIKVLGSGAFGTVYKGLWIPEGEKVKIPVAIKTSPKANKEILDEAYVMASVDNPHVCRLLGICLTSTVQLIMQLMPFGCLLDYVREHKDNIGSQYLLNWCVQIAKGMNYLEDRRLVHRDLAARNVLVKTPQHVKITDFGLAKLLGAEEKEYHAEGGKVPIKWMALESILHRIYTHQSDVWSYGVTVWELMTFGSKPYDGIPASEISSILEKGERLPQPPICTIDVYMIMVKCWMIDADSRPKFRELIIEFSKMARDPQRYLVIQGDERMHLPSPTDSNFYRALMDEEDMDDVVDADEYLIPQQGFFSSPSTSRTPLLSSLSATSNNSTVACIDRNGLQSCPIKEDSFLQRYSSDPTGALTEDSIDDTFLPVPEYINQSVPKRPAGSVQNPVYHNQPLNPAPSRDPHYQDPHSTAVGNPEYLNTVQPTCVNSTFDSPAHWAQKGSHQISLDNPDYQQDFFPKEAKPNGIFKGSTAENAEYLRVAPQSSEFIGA
T5 sequence (P00533 669-1210 T790M limits assumed): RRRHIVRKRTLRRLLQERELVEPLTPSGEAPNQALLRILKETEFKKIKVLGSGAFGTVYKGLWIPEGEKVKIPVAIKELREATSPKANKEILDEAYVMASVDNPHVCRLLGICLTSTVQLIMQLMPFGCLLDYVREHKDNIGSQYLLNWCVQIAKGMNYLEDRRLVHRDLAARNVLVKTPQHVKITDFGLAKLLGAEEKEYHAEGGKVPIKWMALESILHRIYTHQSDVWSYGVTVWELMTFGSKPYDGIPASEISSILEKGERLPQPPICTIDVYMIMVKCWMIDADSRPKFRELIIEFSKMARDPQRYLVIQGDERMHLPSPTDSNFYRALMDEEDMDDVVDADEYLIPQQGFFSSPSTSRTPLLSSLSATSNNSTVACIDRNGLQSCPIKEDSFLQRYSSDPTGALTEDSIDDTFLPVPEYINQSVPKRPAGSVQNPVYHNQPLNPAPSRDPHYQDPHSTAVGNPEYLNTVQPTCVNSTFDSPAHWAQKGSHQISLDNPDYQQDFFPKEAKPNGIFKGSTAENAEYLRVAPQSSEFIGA
T8 sequence (P00533 669-1210 T790M/L858R limits assumed): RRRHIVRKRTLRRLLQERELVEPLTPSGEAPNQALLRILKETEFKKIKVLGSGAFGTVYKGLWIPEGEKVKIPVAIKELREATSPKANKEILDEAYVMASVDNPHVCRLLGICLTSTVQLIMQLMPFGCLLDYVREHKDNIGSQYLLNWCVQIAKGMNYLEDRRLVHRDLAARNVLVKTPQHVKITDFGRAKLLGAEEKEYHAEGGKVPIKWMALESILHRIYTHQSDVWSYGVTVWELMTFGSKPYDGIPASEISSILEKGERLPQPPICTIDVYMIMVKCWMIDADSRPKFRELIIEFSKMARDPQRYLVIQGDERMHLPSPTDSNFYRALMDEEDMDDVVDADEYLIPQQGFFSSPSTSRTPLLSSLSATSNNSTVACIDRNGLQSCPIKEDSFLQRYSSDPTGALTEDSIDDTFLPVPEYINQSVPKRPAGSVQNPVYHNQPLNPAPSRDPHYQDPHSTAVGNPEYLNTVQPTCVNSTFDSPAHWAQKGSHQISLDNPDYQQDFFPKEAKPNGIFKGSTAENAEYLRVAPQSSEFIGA

IC50 [1] [µM]	IC50 [2] [µM]	IC50 [3] [µM]	IC50 [4] [µM]	IC50 [5] [µM]	IC50 [6] [µM]	IC50 [7] [µM]	IC50 [8] [µM]	IC50 [9] [µM]	IC50 [10] [µM]	IC50 [11] [µM]	Compound	Selectivity over wildtype, Wildtype vs mutant H2073/PC9 (fold) [10]	Selectivity over wildtype, Wildtype vs mutant H2073/H1975 (fold) [11]
0.201 to 1	< 0.02	< 0.02	0.02 to 0.2	< 0.02	< 0.02	< 0.02	< 0.02	> 1	< 0.02	0.02 to 0.2	C=CC(=O)Nc1cc(Nc2ncc(C)c(-n3cc(CN4CC(O)C4)cn3)n2)c(OC)cc1N1CCOCC1 [Compound 19, N-(5-(4-(4-((3-hydroxyazetidin-1-yl)methyl)-1H-pyrazol-1-yl)-5-methylpyrimidin-2-ylamino)-4-methoxy-2-morpholinophenyl)acrylamide]	100-200 fold	20-100 fold
> 1	< 0.02	< 0.02	0.201 to 1	< 0.02	< 0.02	< 0.02	< 0.02	> 1	< 0.02	< 0.02	C=CC(=O)Nc1cc(Nc2ncc(C)c(-n3cc(CN4C[C@@H](O)[C@@H](O)C4)c(C)n3)n2)c(OC)cc1N1CCOCC1 [Compound 25, N-(5-(4-(4-(((3R,4S)-3,4-dihydroxypyrrolidin-1-yl)methyl)-3-methyl-1H-pyrazol-1-yl)-5-methylpyrimidin-2-ylamino)-4-methoxy-2-morpholinophenyl)acrylamide]	>200 fold	101-200 fold
> 1	< 0.02	< 0.02	> 1	< 0.02	< 0.02	0.02 to 0.2	< 0.02	–	–	–	C=CC(=O)Nc1cc(Nc2ncc(C)c(-n3cc(CN4CCC4)cn3)n2)c(OC)cc1N1CCCOCC1 [Compound 40, N-(5-(4-(4-(azetidin-1-ylmethyl)-1H-pyrazol-1-yl)-5-methylpyrimidin-2-ylamino)-4-methoxy-2-(1,4-oxazepan-4-yl)phenyl)acrylamide]	–	–
> 1	< 0.02	< 0.02	0.201 to 1	< 0.02	< 0.02	< 0.02	< 0.02	–	–	–	C=CC(=O)Nc1cc(Nc2ncc(Cl)c(-n3cc(CN4CC(O)C4)c(C)n3)n2)c(OC)cc1N1CCOCC1 [Compound 49, N-(5-(5-chloro-4-(4-((3-hydroxyazetidin-1-yl)methyl)-3-methyl-1H-pyrazol-1-yl)pyrimidin-2-ylamino)-4-methoxy-2-morpholinophenyl)acrylamide]	–	–
> 1	< 0.02	< 0.02	> 1	–	–	0.02 to 0.2	< 0.02	> 1	0.02 to 0.2	0.02 to 0.2	C=CC(=O)Nc1cc(Nc2nccc(-n3cc(CN4CCC4)c(-c4ccc(C)cc4)n3)n2)c(OC)cc1N1CCOCC1 [Compound 82, N-(5-(4-(4-(azetidin-1-ylmethyl)-3-p-tolyl-1H-pyrazol-1-yl)pyrimidin-2-ylamino)-4-methoxy-2-morpholinophenyl)acrylamide]	101-200 fold	101-200 fold

The next lines start with the compound.

Compound	IC50 [1] [µM]	IC50 [2] [µM]	IC50 [3] [µM]	IC50 [4] [µM]	IC50 [5] [µM]	IC50 [6] [µM]	IC50 [7] [µM]	IC50 [8] [µM]	IC50 [9] [µM]	IC50 [10] [µM]	IC50 [11] [µM]	Selectivity over wildtype, Wildtype vs mutant H2073/PC9 (fold) [10]	Selectivity over wildtype, Wildtype vs mutant H2073/H1975 (fold) [11]
C=CC(=O)Nc1cc(Nc2nccc(-n3cc(CN4CCC4)c(C)n3)n2)c(OC)cc1N1CCN(C)CC1 [Compound 17, N-(5-(4-(4-(azetidin-1-ylmethyl)-3-methyl-1H-pyrazol-1-yl)pyrimidin-2-ylamino)-4-methoxy-2-(4-methylpiperazin-1-yl)phenyl)acrylamide]	0.201 to 1	< 0.02	< 0.02	0.201 to 1	< 0.02	< 0.02	< 0.02	< 0.02	–	–	–	–	–
C=CC(=O)Nc1cc(Nc2nccc(-n3cc(CN4CCC4)cn3)n2)c(OC)cc1N1CCOCC1 [Compound 34, N-(5-(4-(4-(azetidin-1-ylmethyl)-1H-pyrazol-1-yl)pyrimidin-2-ylamino)-4-methoxy-2-morpholinophenyl)acrylamide]	> 1	< 0.02	< 0.02	0.201 to 1	< 0.02	0.02 to 0.2	0.02 to 0.2	< 0.02	–	–	–	–	–
C=CC(=O)Nc1cc(Nc2nccc(-n3cc(CN(C)C)c(C)n3)n2)c(OC)cc1N1CCN(C)CC1 [Compound 47, N-(5-(4-(4-((dimethylamino)methyl)-3-methyl-1H-pyrazol-1-yl)pyrimidin-2-ylamino)-4-methoxy-2-(4-methylpiperazin-1-yl)phenyl)acrylamide]	> 1	< 0.02	< 0.02	0.201 to 1	< 0.02	< 0.02	< 0.02	< 0.02	–	–	–	–	–
C=CC(=O)Nc1cc(Nc2nccc(-n3cc(CN4CCC4)c(C)n3)n2)c(OC)cc1-c1ccccc1 [Compound 65, N-(4-(4-(4-(azetidin-1-ylmethyl)-3-methyl-1H-pyrazol-1-yl)pyrimidin-2-ylamino)-5-methoxybiphenyl-2-yl)acrylamide]	> 1	< 0.02	< 0.02	> 1	0.201 to 1	0.02 to 0.2	0.02 to 0.2	< 0.02	–	–	–	–	–
Cc1cc(Nc2nccc(-n3cc(CN4CC(O)C4)c(C)n3)n2)cc(C)c1OCCO [Compound 149, 1-((1-(2-(4-(2-hydroxyethoxy)-3,5-dimethylphenylamino)pyrimidin-4-yl)-3-methyl-1H-pyrazol-4-yl)methyl)azetidin-3-ol, reference compound]	–	> 1	> 1	> 1	> 1	–	> 1	0.201 to 1	> 1	> 1	> 1	<20 fold	<20 fold
Cc1cc(Nc2nccc(-n3cc(CN4CC(O)C4)c(C4CC4)n3)n2)cc(C)c1OCCO [Compound 151, 1-((3-cyclopropyl-1-(2-(4-(2-hydroxyethoxy)-3,5-dimethylphenylamino)pyrimidin-4-yl)-1H-pyrazol-4-yl)methyl)azetidin-3-ol, reference compound]	–	0.201 to 1	> 1	0.201 to 1	> 1	–	0.02 to 0.2	0.02 to 0.2	> 1	> 1	> 1	<20 fold	<20 fold
CCC(=O)Nc1cc(Nc2nccc(-n3cc(CN(C)C)c(-c4ccccc4)n3)n2)c(OC)cc1N1CCOCC1 [Compound 157, N-(5-(4-(4-((dimethylamino)methyl)-3-phenyl-1H-pyrazol-1-yl)pyrimidin-2-ylamino)-4-methoxy-2-morpholinophenyl)propionamide, reference compound]	–	> 1	> 1	> 1	> 1	–	> 1	> 1	> 1	> 1	> 1	<20 fold	<20 fold
CCC(=O)Nc1cc(Nc2nccc(-n3cc(CN4CCC4)c(-c4ccccc4)n3)n2)c(OC)cc1N1CCOCC1 [Compound 158, N-(5-(4-(4-(azetidin-1-ylmethyl)-3-phenyl-1H-pyrazol-1-yl)pyrimidin-2-ylamino)-4-methoxy-2-morpholinophenyl)propionamide, reference compound]	–	> 1	> 1	> 1	> 1	–	> 1	> 1	> 1	0.02 to 0.2	0.201 to 1	<20 fold	<20 fold
C=C(F)C(=O)Nc1cc(Nc2nccc(-n3cc(CN4CCC4)c(-c4ccccc4)n3)n2)c(OC)cc1N1CCOCC1 [Compound 159, N-(5-(4-(4-(azetidin-1-ylmethyl)-3-phenyl-1H-pyrazol-1-yl)pyrimidin-2-ylamino)-4-methoxy-2-morpholinophenyl)-2-fluoroacrylamide, reference compound]	–	0.02 to 0.2	> 1	> 1	> 1	–	> 1	0.02 to 0.2	> 1	> 1	> 1	<20 fold	<20 fold
